Experimental data taken from patent US12195482B1 (Arcus Biosciences, Inc., priority 2022, dated 2025).

Assays:
p-AXL = molecular target: T1, p-AXL (Homo sapiens, UniProt P30530); assay: Axl phosphorylation inhibition ELISA in HEK293T cells transfected with NanoLuc-tagged AXL; type: cell-based; settings: 1 h compound incubation, media (OptiMEM)
T1 construct: expressed in transfected cells; host or cells: HEK293T
T1 sequence (P30530 26-894): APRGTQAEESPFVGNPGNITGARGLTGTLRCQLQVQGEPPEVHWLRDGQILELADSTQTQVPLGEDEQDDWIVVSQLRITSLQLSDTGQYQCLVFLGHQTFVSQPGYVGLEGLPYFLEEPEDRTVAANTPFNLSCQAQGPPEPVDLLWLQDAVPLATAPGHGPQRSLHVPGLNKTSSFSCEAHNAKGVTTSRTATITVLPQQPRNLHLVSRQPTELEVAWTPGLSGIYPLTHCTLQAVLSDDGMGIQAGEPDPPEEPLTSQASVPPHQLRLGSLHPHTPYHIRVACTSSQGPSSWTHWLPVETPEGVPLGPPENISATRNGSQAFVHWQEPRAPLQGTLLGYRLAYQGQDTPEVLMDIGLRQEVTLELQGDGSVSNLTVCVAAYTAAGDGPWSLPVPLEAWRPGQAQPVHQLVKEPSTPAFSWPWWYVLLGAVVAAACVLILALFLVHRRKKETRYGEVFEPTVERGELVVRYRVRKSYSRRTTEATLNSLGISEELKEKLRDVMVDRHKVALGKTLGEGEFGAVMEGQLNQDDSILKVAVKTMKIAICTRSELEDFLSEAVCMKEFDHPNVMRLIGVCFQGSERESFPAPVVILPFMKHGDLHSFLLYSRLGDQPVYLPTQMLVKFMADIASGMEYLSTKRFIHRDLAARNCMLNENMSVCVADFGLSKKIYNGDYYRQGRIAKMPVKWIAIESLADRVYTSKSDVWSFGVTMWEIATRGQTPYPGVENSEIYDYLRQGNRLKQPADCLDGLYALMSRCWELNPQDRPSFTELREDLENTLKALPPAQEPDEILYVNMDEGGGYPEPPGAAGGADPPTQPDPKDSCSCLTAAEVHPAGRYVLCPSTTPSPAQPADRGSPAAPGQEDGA
Method in brief: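 HEK293T cells transiently transfected one day earlier with NanoLuc-tagged AXL were exposed to 22-point 2-fold compound dilutions for 1 h at 37° C (70,000 cells/well), then lysed. Lysates captured on anti-phospho-tyrosine coated plates for 2 h; bound p-AXL read by NanoLuc luminescence; IC50 from 4-parameter logistic fit.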

Axl = molecular target: T2, Axl (Homo sapiens, UniProt P30530); assay: Biochemical potency, HTRF KinEASE-TK kinase assay; parameters: purchased Invitrogen; settings: 5 nM AXL, 700 μM ATP
T2 sequence (P30530 26-894): T1 sequence (P30530 26-894)
Method in brief: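 HTRF 665/620 readout after a 2 h RT kinase reaction (final 700 μM ATP, 800 nM biotinylated TK substrate, 1% DMSO, HEPES pH 7.4 buffer) gave percent activity. Final enzyme was 5 nM for AXL, 1 nM for TYRO3 or MER, each preincubated 1 h with compound.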

SMILES	IC50 (p-AXL) [nM]	IC50 (Axl) [nM]
COc1ccnc(-c2ccc(-c3n[nH]c4ncc(-c5ccc6c(c5)CC[C@@H](N5C7COCC5C7)CC6)cc34)cc2)c1C [Example 87, 6-[(7S)-3-[3-[4-(4-Methoxy-3-methylpyridin-2-yl)phenyl]-1H-pyrazolo[3,4-b]pyridin-5-yl]-6,7,8,9-tetrahydro-5H-benzo[7]annulen-7-yl]-3-oxa-6-azabicyclo[3.1.1]heptane]	100 to 1000	< 100
FC(F)(F)c1cccnc1-c1ccc(-c2n[nH]c3ncc(-c4ccc5c(c4)CC[C@@H](N4C6COCC4C6)CC5)cc23)cc1 [Example 88, 6-[(7S)-3-[3-[4-[3-(Trifluoromethyl)pyridin-2-yl]phenyl]-1H-pyrazolo[3,4-b]pyridin-5-yl]-6,7,8,9-tetrahydro-5H-benzo[7]annulen-7-yl]-3-oxa-6-azabicyclo[3.1.1]heptane]	100 to 1000	< 100
Clc1cccnc1-c1ccc(-c2c[nH]c3ncc(-c4ccc5c(c4)CC[C@@H](N4C6COCC4C6)CC5)cc23)cc1 [Example 43, 6-[(7S)-2-{3-[4-(3-Chloropyridin-2-yl)phenyl]-1H-pyrrolo[2,3-b]pyridin-5-yl}-6,7,8,9-tetrahydro-5H-benzo[7]annulen-7-yl]-3-oxa-6-azabicyclo[3.1.1]heptane]		< 100
Cc1ccnnc1-c1ccc(-c2n[nH]c3ncc(-c4ccc5c(c4)CC[C@@H](N4C6COCC4C6)CC5)cc23)nc1 [Example 56, 6-[(7S)-2-{3-[5-(4-Methylpyridazin-3-yl)pyridin-2-yl]-1H-pyrazolo[3,4-b]pyridin-5-yl}-6,7,8,9-tetrahydro-5H-benzo[7]annulen-7-yl]-3-oxa-6-azabicyclo[3.1.1]heptane]	< 100	< 100
Cc1cnc(-c2ccc(-c3c[nH]c4ncc(-c5ccc6c(c5)CC[C@@](C)(N5CCC[C@H]5C)CC6)cc34)cc2)c(C)n1 [Example 57, 3,5-Dimethyl-2-(4-{5-[(7S)-7-methyl-7-[(2R)-2-methylpyrrolidin-1-yl]-6,7,8,9-tetrahydro-5H-benzo[7]annulen-2-yl]-1H-pyrrolo[2,3-b]pyridin-3-yl}phenyl)pyrazine]	< 100	< 100
C[C@@H]1CCCN1[C@@]1(C)CCc2ccc(-c3cnc4[nH]nc(-c5ccc(-c6ncco6)cc5)c4c3)cc2CC1 [Example 90, 2-(4-{5-[(7S)-7-Methyl-7-[(2R)-2-methylpyrrolidin-1-yl]-6,7,8,9-tetrahydro-5H-benzo[7]annulen-2-yl]-2H-pyrazolo[3,4-b]pyridin-3-yl}phenyl)-1,3-oxazole]	< 100	< 100
Cc1nccnc1-c1ccc(-c2c[nH]c3ncc(-c4ccc5c(c4)CC[C@@H](N4C6COCC4C6)CC5)cc23)cc1 [Example 48, 6-[(7S)-2-{3-[4-(3-Methylpyrazin-2-yl)phenyl]-1H-pyrrolo[2,3-b]pyridin-5-yl}-6,7,8,9-tetrahydro-5H-benzo[7]annulen-7-yl]-3-oxa-6-azabicyclo[3.1.1]heptane]	< 100	< 100
Cc1cncnc1-c1ccc(-c2c[nH]c3ncc(-c4ccc5c(c4)CC[C@@H](N4C6COCC4C6)CC5)cc23)cc1 [Example 47, 6-[(7S)-2-{3-[4-(5-Methylpyrimidin-4-yl)phenyl]-1H-pyrrolo[2,3-b]pyridin-5-yl}-6,7,8,9-tetrahydro-5H-benzo[7]annulen-7-yl]-3-oxa-6-azabicyclo[3.1.1]heptane]	< 100	< 100
Cc1cccnc1-c1ccc(-c2c[nH]c3ncc(-c4ccc5c(c4)CC[C@@H](N4C6COCC4C6)CC5)cc23)cc1 [Example 1, 6-[(7S)-2-{3-[4-(3-Methylpyridin-2-yl)phenyl]-1H-pyrrolo[2,3-b]pyridin-5-yl}-6,7,8,9-tetrahydro-5H-benzo[7]annulen-7-yl]-3-oxa-6-azabicyclo[3.1.1]heptane]	< 100	< 100
c1cc(-n2cc(-c3c[nH]c4ncc(-c5ccc6c(c5)CC[C@@H](N5C7COCC5C7)CC6)cc34)cn2)ccn1 [Example 45, 6-[(7S)-2-{3-[1-(Pyridin-4-yl)-1H-pyrazol-4-yl]-1H-pyrrolo[2,3-b]pyridin-5-yl}-6,7,8,9-tetrahydro-5H-benzo[7]annulen-7-yl]-3-oxa-6-azabicyclo[3.1.1]heptane]	100 to 1000	< 100
FC(F)c1cccnc1-c1ccc(-c2n[nH]c3ncc(-c4ccc5c(c4)CC[C@@H](N4C6COCC4C6)CC5)cc23)cc1 [Example 89, 6-[(7S)-3-[3-[4-[3-(Difluoromethyl)pyridin-2-yl]phenyl]-1H-pyrazolo[3,4-b]pyridin-5-yl]-6,7,8,9-tetrahydro-5H-benzo[7]annulen-7-yl]-3-oxa-6-azabicyclo[3.1.1]heptane]	100 to 1000	< 100
Cc1cccnc1-c1ccc(-c2n[nH]c3ncc(-c4ccc5c(c4)CC[C@@H](N4C6COCC4C6)CC5)cc23)cc1 [Example 2, 6-[(7S)-2-{3-[4-(3-Methylpyridin-2-yl)phenyl]-2H-pyrazolo[3,4-b]pyridin-5-yl}-6,7,8,9-tetrahydro-5H-benzo[7]annulen-7-yl]-3-oxa-6-azabicyclo[3.1.1]heptane]	< 100	< 100
Cc1ccnnc1-c1ccc(-c2c[nH]c3ncc(-c4ccc5c(c4)CC[C@@H](N4C6COCC4C6)CC5)cc23)cc1 [Example 49, 6-[(7S)-2-{3-[4-(4-Methylpyridazin-3-yl)phenyl]-1H-pyrrolo[2,3-b]pyridin-5-yl}-6,7,8,9-tetrahydro-5H-benzo[7]annulen-7-yl]-3-oxa-6-azabicyclo[3.1.1]heptane]	< 100	< 100
Fc1cc(-c2c[nH]c3ncc(-c4ccc5c(c4)CC[C@@H](N4C6COCC4C6)CC5)cc23)ccc1-c1ccccn1 [Example 40, 6-[(7S)-2-{3-[3-Fluoro-4-(pyridin-2-yl)phenyl]-1H-pyrrolo[2,3-b]pyridin-5-yl}-6,7,8,9-tetrahydro-5H-benzo[7]annulen-7-yl]-3-oxa-6-azabicyclo[3.1.1]heptane]		< 100
Fc1cccnc1-c1ccc(-c2c[nH]c3ncc(-c4ccc5c(c4)CC[C@@H](N4C6COCC4C6)CC5)cc23)cc1 [Example 42, 6-[(7S)-2-{3-[4-(3-Fluoropyridin-2-yl)phenyl]-1H-pyrrolo[2,3-b]pyridin-5-yl}-6,7,8,9-tetrahydro-5H-benzo[7]annulen-7-yl]-3-oxa-6-azabicyclo[3.1.1]heptane]		< 100
c1cncc(-c2ccc(-c3n[nH]c4ncc(-c5ccc6c(c5)CC[C@@H](N5C7COCC5C7)CC6)cc34)cc2)c1 [Example 157, 6-[(7S)-2-{3-[4-(Pyridin-3-yl)phenyl]-2H-pyrazolo[3,4-b]pyridin-5-yl}-6,7,8,9-tetrahydro-5H-benzo[7]annulen-7-yl]-3-oxa-6-azabicyclo[3.1.1]heptane]		< 100
COc1cc(-c2c[nH]c3ncc(-c4ccc5c(c4)CC[C@@H](N4C6COCC4C6)CC5)cc23)ccc1-c1ccccn1 [Example 161, 6-[(7S)-2-{3-[3-Methoxy-4-(pyridin-2-yl)phenyl]-1H-pyrrolo[2,3-b]pyridin-5-yl}-6,7,8,9-tetrahydro-5H-benzo[7]annulen-7-yl]-3-oxa-6-azabicyclo[3.1.1]heptane]		< 100
COc1cccc(-c2ccc(-c3n[nH]c4ncc(-c5ccc6c(c5)CC[C@@H](N5C7COCC5C7)CC6)cc34)cc2)n1 [Example 162, 6-[(7S)-2-{3-[4-(6-Methoxypyridin-2-yl)phenyl]-2H-pyrazolo[3,4-b]pyridin-5-yl}-6,7,8,9-tetrahydro-5H-benzo[7]annulen-7-yl]-3-oxa-6-azabicyclo[3.1.1]heptane]		< 100
COc1cc(-c2n[nH]c3ncc(-c4ccc5c(c4)CC[C@@H](N4C6COCC4C6)CC5)cc23)ccc1-c1ccccn1 [Example 160, 6-[(7S)-2-{3-[3-Methoxy-4-(pyridin-2-yl)phenyl]-2H-pyrazolo[3,4-b]pyridin-5-yl}-6,7,8,9-tetrahydro-5H-benzo[7]annulen-7-yl]-3-oxa-6-azabicyclo[3.1.1]heptane]		< 100
Cc1nncn1-c1ccc(-c2n[nH]c3ncc(-c4ccc5c(c4)CC[C@@H](N4C6COCC4C6)CC5)cc23)cc1 [Example 11, 6-[(7S)-2-{3-[4-(3-Methyl-4H-1,2,4-triazol-4-yl)phenyl]-1H-pyrazolo[3,4-b]pyridin-5-yl}-6,7,8,9-tetrahydro-5H-benzo[7]annulen-7-yl]-3-oxa-6-azabicyclo[3.1.1]heptane]		< 100
